molecular target: TNFα trimer (Homo sapiens, UniProt P01375); assay: TNFα FP Competitive Binding Assay; conditions: fluorescence polarization competition; 20 nM TNFα trimer, 1 nM OregonGreen488 probe; read-out: TNF IC50 (TNFα FP binding assay IC50)
In short: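 Compounds, 12-point 1:3 dilutions topping at 100 μM (2.0% DMSO) or 338 μM (3.4% DMSO) final, compete with 1 nM fluorescent probe for 20 nM TNFα trimer in HEPES/NaCl/EDTA/Triton buffer. After 18-24 h incubation at 37 °C plus 1 h rt equilibration, background-subtracted polarization is read and fitted with variable slope.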

TNFα trimer, sequence (P01375 77-233 limits assumed): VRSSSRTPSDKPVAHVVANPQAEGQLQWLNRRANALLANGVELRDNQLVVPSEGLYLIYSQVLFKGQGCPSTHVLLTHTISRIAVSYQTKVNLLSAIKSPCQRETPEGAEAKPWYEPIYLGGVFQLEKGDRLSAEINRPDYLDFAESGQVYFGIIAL

| IC50 [nM] | Structure (SMILES) |
| --- | --- |
| < 1000 | c1ccc2c(c1)OCC21COCc2nc3ccc(-c4cnc(N5CCOCC5)nc4)nc3n21 (stereo not shown) [Example 51, 2′-(2-Morpholinopyrimidin-5-yl)-6′,8′-dihydro-2H-spiro[benzofuran-3,9′-pyrido[3′,2′:4,5]imidazo[2,1-c][1,4]oxazine]] |
| < 1000 | OC1CCN(c2ncc(-c3ccc4nc5n(c4n3)C3(CCc4ccccc43)COC5)cn2)CC1 (stereo not shown) [Example 52] |
| 1000 to 10000 | O=c1cc(-c2ccc3nc4n(c3n2)[C@@H](c2ccccc2)CC4)ccn1CC1CCC(F)(F)CC1 [Example 53, (R)-1-((4,4-Difluorocyclohexyl)methyl)-4-(8-phenyl-7,8-dihydro-6H-pyrrolo[2′,1′:2,3]imidazo[4,5-b]pyridin-2-yl)pyridin-2(1H)-one] |
| < 1000 | OC1CCC(Oc2cc(-c3ccc4nc5n(c4n3)C3(COC5)COc4ccccc43)ccn2)CC1 (stereo not shown) [Example 54, 4-((4-(6′,8′-dihydro-2H-spiro[benzofuran-3,9′-pyrido[3′,2′:4,5]imidazo[2,1-c][1,4]oxazin]-2′-yl)pyridin-2-yl)oxy)cyclohexanol] |
| < 1000 | OC1CCN(c2ncc(-c3nc4c(cc3F)nc3n4[C@@H](c4ccccc4)CC3)cn2)CC1 [Example 55, (R)-1-(5-(3-fluoro-8-phenyl-7,8-dihydro-6H-pyrrolo[2′,1′:2,3]imidazo[4,5-b]pyridin-2-yl)pyrimidin-2-yl)piperidin-4-ol] |
| 1000 to 10000 | c1ccc(C2OCCc3nc4ccc(-c5cnc(N6CCOCC6)nc5)nn4c32)cc1 (stereo not shown) [Example 56, 2-(2-morpholinopyrimidin-5-yl)-9-phenyl-7,9-dihydro-6H-pyrano[4′,3′:4,5]imidazo[1,2-b]pyridazine] |
| < 1000 | COc1ccccc1C1CCOc2nc3ccc(-c4ccnc(O[C@H]5CC[C@H](O)CC5)c4)cn3c21 (stereo partly drawn) [Example 57, trans-4-((4-(4-(2-Methoxyphenyl)-3,4-dihydro-2H-pyrano[2′,3′:4,5]imidazo[1,2-a]pyridin-7-yl)pyridin-2-yl)oxy)cyclohexanol] |
| 1000 to 10000 | c1ccc2c(c1)OCCC21COCc2nc3ccc(-c4cnc(N5CCNCC5)nc4)nc3n21 (stereo not shown) [Example 59, 2′-(2-(Piperazin-1-yl)pyrimidin-5-yl)-6′H,8′H-spiro[chromane-4,9′-pyrido[3′,2′:4,5]imidazo[2,1-c][1,4]oxazine]] |
| 1000 to 10000 | c1ccc2c(c1)OCCC21COCc2nc3ccc(-c4cnc(NC5CCOC5)nc4)nc3n21 (stereo not shown) [Example 60, 5-(6′H,8′H-Spiro[chromane-4,9′-pyrido[3′,2′:4,5]imidazo[2,1-c][1,4]oxazin]-2′-yl)-N-(tetrahydrofuran-3-yl)pyrimidin-2-amine] |
| 1000 to 10000 | c1ccc([C@H]2CCc3nc4ccc(-c5ccnc(OCC6CCOCC6)c5)nc4n32)cc1 [Example 61, (R)-8-Phenyl-2-(2-((tetrahydro-2H-pyran-4-yl)methoxy)pyridin-4-yl)-7,8-dihydro-6H-pyrrolo[2′,1′:2,3]imidazo[4,5-b]pyridine] |
| 10000 to 100000 | CC1(C)C=C(c2ccc3nc4n(c3n2)[C@@H](c2ccccc2)CC4)CN1 [Example 62] |
| 1000 to 10000 | CC(C)(O)c1ncc(-c2ccc3nc4n(c3n2)C(c2ccccc2)C2CC4C2)cn1 (stereo not shown) [Example 63, 2-(5-(9-Phenyl-6,7,8,9-tetrahydro-6,8-methanoimidazo[1,2-a:5,4-b′]dipyridin-2-yl)pyrimidin-2-yl)propan-2-ol] |
| 1000 to 10000 | OC1CCN(c2ncc(-c3ccc4nc5n(c4n3)C(c3ccccc3)C3CC5C3)cn2)CC1 (stereo not shown) [Example 64, 1-(5-(9-Phenyl-6,7,8,9-tetrahydro-6,8-methanoimidazo[1,2-a:5,4-b′]dipyridin-2-yl)pyrimidin-2-yl)piperidin-4-ol] |
| 1000 to 10000 | CC1(C)C=C(c2ccc3nc4n(c3n2)C2(COC4)COc3ccccc32)CN1 (stereo not shown) [Example 65, 2′-(5,5-Dimethyl-2,5-dihydro-1H-pyrrol-3-yl)-6′,8′-dihydro-2H-spiro[benzofuran-3,9′-pyrido[3′,2′:4,5]imidazo[2,1-c][1,4]oxazine]] |
| 1000 to 10000 | c1ccc2c(c1)OCC21COCc2nc3ccc(-c4cnc(N5CCNCC5)nc4)nc3n21 (stereo not shown) [Example 66, 2′-(2-(Piperazin-1-yl)pyrimidin-5-yl)-2H,6′H,8′H-spiro[benzofuran-3,9′-pyrido[3′,2′:4,5]imidazo[2,1-c][1,4]oxazine]] |
| < 1000 | C[C@H]1CN(c2ncc(-c3ccc4nc5n(c4n3)C3(COC5)COc4ccccc43)cn2)CCN1C(=O)CO (stereo partly drawn) [Example 67, 1-((2S)-4-(5-(2H,6′H,8′H-Spiro[benzofuran-3,9′-pyrido[3′,2′:4,5]imidazo[2,1-c][1,4]oxazin]-2′-yl)pyrimidin-2-yl)-2-methylpiperazin-1-yl)-2-hydroxyethan-1-one] |
| < 1000 | CC(C)(O)c1ncc(-c2ccc3nc4n(c3n2)C2(CCc3ccccc32)COC4)cn1 (stereo not shown) [Example 68, 2-(5-(2,3-Dihydro-6′H,8′H-spiro[indene-1,9′-pyrido[3′,2′:4,5]imidazo[2,1-c][1,4]oxazin]-2′-yl)pyrimidin-2-yl)propan-2-ol] |
| 1000 to 10000 | CC(C)(O)c1ncc(-c2ccc3nc4n(c3n2)C2(COC4)CC(=O)c3ccccc32)cn1 (stereo not shown) [Example 69, 2′-(2-(2-Hydroxypropan-2-yl)pyrimidin-5-yl)-6′,8′-dihydrospiro[indene-1,9′-pyrido[3′,2′:4,5]imidazo[2,1-c][1,4]oxazin]-3(2H)-one] |
| 10000 to 100000 | CC(C)(O)c1ncc(-c2ccc3nc4n(c3n2)[C@@H](c2ccccc2)[C@@H]2C[C@H]4O2)cn1 [Example 70, 2-(5-((6R,8S,9S)-9-Phenyl-6,7,8,9-tetrahydro-6,8-epoxyimidazo[1,2-a:5,4-b′]dipyridin-2-yl)pyrimidin-2-yl)propan-2-ol] |

| IC50 [nM] | Structure (SMILES) |
| --- | --- |
| 10000 to 100000 | OC1CCN(c2ncc(-c3ccc4nc5n(c4n3)[C@@H](c3ccccc3)[C@@H]3C[C@H]5O3)cn2)CC1 [Example 71, 1-(5-((6R,8S,9S)-9-Phenyl-6,7,8,9-tetrahydro-6,8-epoxyimidazo[1,2-a:5,4-b′]dipyridin-2-yl)pyrimidin-2-yl)piperidin-4-ol] |
| 1000 to 10000 | CC(C)(O)c1ncc(-c2ccc3nc4n(c3n2)C2(CCc3ccccc32)COC4O)cn1 (stereo not shown) [Example 72, 2′-(2-(2-Hydroxypropan-2-yl)pyrimidin-5-yl)-2,3-dihydro-6′H,8′H-spiro[indene-1,9′-pyrido[3′,2′:4,5]imidazo[2,1-c][1,4]oxazin]-6′-ol] |
| 1000 to 10000 | C1=C(c2ccc3nc4n(c3n2)C2(COC4)COc3ccccc32)CCN(c2ccncn2)C1 (stereo not shown) [Example 73, 2′-(1-(Pyrimidin-4-yl)-1,2,3,6-tetrahydropyridin-4-yl)-2H,6′H,8′H-spiro[benzofuran-3,9′-pyrido[3′,2′:4,5]imidazo[2,1-c][1,4]oxazine]] |
| < 1000 | O[C@H]1CC[C@H](Oc2cc(-c3ccc4nc5n(c4n3)[C@@]3(COC5)COc4ccccc43)ccn2)CC1 [Example 74, (1S,4r)-4-((4-((S)-6′,8′-Dihydro-2H-spiro[benzofuran-3,9′-pyrido[3′,2′:4,5]imidazo[2,1-c][1,4]oxazin]-2′-yl)pyridin-2-yl)oxy)cyclohexanol] |
| < 1000 | C[C@H]1CN(c2ncc(-c3ccc4nc5n(c4n3)[C@@]3(COC5)COc4ccccc43)cn2)CCN1C(=O)CO [Example 75, 1-((S)-4-(5-((S)-6′,8′-Dihydro-2H-spiro[benzofuran-3,9′-pyrido[3′,2′:4,5]imidazo[2,1-c][1,4]oxazin]-2′-yl)pyrimidin-2-yl)-2-methylpiperazin-1-yl)-2-hydroxyethanone] |
| 1000 to 10000 | C1=C(c2ccc3nc4n(c3n2)[C@@H](c2ccccc2)CC4)CCN(c2ccncn2)C1 [Example 76, (R)-8-Phenyl-2-(1-(pyrimidin-4-yl)-1,2,3,6-tetrahydropyridin-4-yl)-7,8-dihydro-6H-pyrrolo[2′,1′:2,3]imidazo[4,5-b]pyridine] |
| < 1000 | CC1(c2ccccc2)CCc2nc3ccc(-c4cnc(N5CCC(O)CC5)nc4)nc3n21 (stereo not shown) [Example 77, 1-(5-(8-Methyl-8-phenyl-7,8-dihydro-6H-pyrrolo[2′,1′:2,3]imidazo[4,5-b]pyridin-2-yl)pyrimidin-2-yl)piperidin-4-ol] |
| < 1000 | CC(C)(N)c1ncc(-c2ccc3nc4n(c3n2)C2(CCc3ccccc32)COC4)cn1 (stereo not shown) [Example 80, 2-(5-(2,3-Dihydro-6′H,8′H-spiro[indene-1,9′-pyrido[3′,2′:4,5]imidazo[2,1-c][1,4]oxazin]-2′-yl)pyrimidin-2-yl)propan-2-amine] |
| 1000 to 10000 | CC(C)(O)c1ncc(-c2ccc3nc4n(c3n2)C2(COC4)CC(O)c3ccccc32)cn1 (stereo not shown) [Example 81, 2′-(2-(2-Hydroxypropan-2-yl)pyrimidin-5-yl)-2,3,6′,8′-tetrahydrospiro[indene-1,9′-pyrido[3′,2′:4,5]imidazo[2,1-c][1,4]oxazin]-3-ol] |
| < 1000 | FC1(F)CCN(c2ncc(-c3ccc4nc5n(c4n3)C(c3ccccc3)COC5)cn2)CC1 (stereo not shown) [Example 82] |
| < 1000 | O[C@H]1CC[C@H](Oc2cc(-c3ccc4nc5n(c4n3)[C@@H](c3ccccc3)CC5)ccn2)CC1 [Example 83, (1R,4R)-4-((4-((R)-8-Phenyl-7,8-dihydro-6H-pyrrolo[2′,1′:2,3]imidazo[4,5-b]pyridin-2-yl)pyridin-2-yl)oxy)cyclohexanol] |
| < 1000 | OC1CC2(CCN(c3ncc(-c4ccc5nc6n(c5c4)[C@@H](c4ccccc4)CC6)cn3)CC2)C1 [F.1] |
| < 1000 | OC1CCN(c2ncc(-c3ccc4nc5n(c4c3)[C@@H](c3ccccc3)CC5)cn2)CC1(F)F (stereo partly shown) [F.2] |
| < 1000 | OC1CCN(c2ncc(-c3ccc4nc5n(c4c3)[C@@H](c3ccccc3)CC5)cn2)CC1 [F.3] |
| < 1000 | O=S1(=O)CCN(c2ncc(-c3ccc4nc5n(c4c3)[C@@H](c3ccccc3)CC5)cn2)CC1 [F.4] |
| 1000 to 10000 | O=C1NCCC12CCN(c1ncc(-c3ccc4nc5n(c4c3)[C@@H](c3ccccc3)COC5)cn1)C2 (stereo partly shown) [G.1] |
| < 1000 | CC1CN(c2ncc(-c3ccc4nc5n(c4c3)[C@@H](c3ccccc3)COC5)cn2)CCO1 (stereo partly shown) [G.2] |
| 1000 to 10000 | O=C(O)CC1CCCN(c2ncc(-c3ccc4nc5n(c4c3)[C@@H](c3ccccc3)COC5)cn2)C1 (stereo partly shown) [G.3] |

Source: patent US20180179198A1, “TRICYCLIC MODULATORS OF TNF SIGNALING” (AbbVie Inc., priority 2015, published 2018)
